The record followed here is PubChem BioAssay (NCI).

Among the test systems are MDA-MB-435; OVCAR-5 ovarian; U251 CNS; KM12 colon; SK-MEL-28 melanoma; UACC-257 melanoma; IGROV1 ovarian; HCT-116 colon; SF-539 CNS; MALME-3M melanoma.
What all share (test): NCI tumour cell line growth inhibition, 48 h

SMILES strings stand for the structures.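 Growth conditions: 96-well plates. Treatment: test compound, 48 hours, 5 concentrations. Analysis: linear interpolation between bracketing concentrations; unreached endpoints set to highest concentration. At the TGI there is no net growth.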

For the compound `Nn1c(Cc2ccc(Cl)cc2)n[nH]c1=O`, the TGI in the experiment with MDA-MB-435, with OVCAR-5 ovarian, in the experiment on U251 CNS, in the experiment with KM12 colon, with SK-MEL-28 melanoma and with UACC-257 melanoma was above 100 µM each time. For the same compound, the TGI in the experiment with IGROV1 ovarian, in the experiment with HCT-116 colon, with SF-539 CNS and with MALME-3M melanoma was above 100 µM throughout.
On to `CC(=O)NC1(C)CCC(C(C)(C)NC(C)=O)CC1` (stereo not given), for which the TGI in the experiment with MDA-MB-435, in the experiment on OVCAR-5 ovarian, with U251 CNS, with KM12 colon, with SK-MEL-28 melanoma and in the experiment with UACC-257 melanoma was above 100 µM each time. In addition, the TGI in the experiment with IGROV1 ovarian, in the experiment on HCT-116 colon, in the experiment with SF-539 CNS and in the experiment with MALME-3M melanoma was above 100 µM throughout.
As to `COC(c1ccsc1)C(C#N)(C#N)N=Cc1ccsc1` (stereo not given), the TGI stood at 29.6 µM in the experiment with MDA-MB-435; 46.6 µM with OVCAR-5 ovarian; 33.5 µM with U251 CNS; 32.3 µM with KM12 colon; 33.1 µM with SK-MEL-28 melanoma; 29.6 µM in the experiment on UACC-257 melanoma. The TGI in the experiment with IGROV1 ovarian came to 52 µM; in the experiment on HCT-116 colon it was 25.4 µM; with SF-539 CNS, 30.4 µM; in the experiment on MALME-3M melanoma, 29.8 µM.
In the case of `Cc1cc(S(=O)(=O)Nc2nc3ccsc3c(=O)n2N)c(S)cc1Cl`, the TGI in the experiment with MDA-MB-435, in the experiment with OVCAR-5 ovarian, with U251 CNS, in the experiment with KM12 colon, in the experiment on SK-MEL-28 melanoma and in the experiment on UACC-257 melanoma was above 100 µM in each case. The TGI with IGROV1 ovarian, in the experiment on HCT-116 colon, with SF-539 CNS and in the experiment with MALME-3M melanoma was above 100 µM throughout.
Regarding `CC1(C)CCC[C@]2(C)[C@@H]1CC[C@@]13O[C@@H]1C1=C(CO)C(=O)O[C@]14O[C@@H]4[C@@H]23`, the TGI in the experiment with MDA-MB-435 is above 53.1 µM; with OVCAR-5 ovarian it was 31.8 µM; with U251 CNS, 29.2 µM; with KM12 colon, 63.8 µM; in the experiment on SK-MEL-28 melanoma, 31.4 µM; in the experiment on UACC-257 melanoma, 35.8 µM. Moreover, the TGI with IGROV1 ovarian stood at 27.3 µM; in the experiment on HCT-116 colon, 26.6 µM; with SF-539 CNS, 37.6 µM; in the experiment with MALME-3M melanoma, 32.4 µM.
Turning to `COc1cc2c(cc1OCCCC(=O)Nc1cc(C(=O)Nc3cc(C(=O)Nc4cc(C(=O)NCCCN(C)C)n(C)c4)n(C)c3)n(C)c1)N=C[C@@H]1CCCN1C2=O`, the TGI in the experiment on MDA-MB-435 was 3.48 µM; in the experiment on OVCAR-5 ovarian, 9.38 µM; in the experiment on U251 CNS it was 3.01 µM; in the experiment on KM12 colon, above 52.2 µM; in the experiment with SK-MEL-28 melanoma it was 4.66 µM; with UACC-257 melanoma, 4.09 µM. The TGI was determined as 8.74 µM in the experiment with IGROV1 ovarian, 3.45 µM in the experiment on HCT-116 colon, 8.72 µM in the experiment on SF-539 CNS and 3.39 µM with MALME-3M melanoma.
In the case of `CC1(C)O[C@H](C(=O)O)[C@@H](C(=O)O)O1`, the TGI with MDA-MB-435, in the experiment with OVCAR-5 ovarian, in the experiment with U251 CNS, in the experiment on KM12 colon, in the experiment on SK-MEL-28 melanoma and in the experiment with UACC-257 melanoma was above 100 µM in each case. Also, the TGI in the experiment on IGROV1 ovarian, with HCT-116 colon, with SF-539 CNS and in the experiment on MALME-3M melanoma was above 100 µM throughout.
As to `CCOC(=O)C1=CN=C2C(=O)N(c3ccccc3)N(C)C2(C)C1=N` (stereo not given), the TGI with MDA-MB-435, in the experiment with OVCAR-5 ovarian, in the experiment on U251 CNS, in the experiment on KM12 colon, in the experiment with SK-MEL-28 melanoma and in the experiment on UACC-257 melanoma was above 100 µM throughout. For the same compound, the TGI in the experiment on IGROV1 ovarian, with HCT-116 colon, in the experiment on SF-539 CNS and in the experiment on MALME-3M melanoma was above 100 µM each time.
As for `CCNc1nc(N)c(C(=O)c2ccc(Cl)cc2)s1`, the TGI with MDA-MB-435, in the experiment on OVCAR-5 ovarian, in the experiment with U251 CNS, in the experiment on KM12 colon, with SK-MEL-28 melanoma and with UACC-257 melanoma was above 100 µM each time. Besides, the TGI with IGROV1 ovarian, in the experiment with HCT-116 colon, with SF-539 CNS and in the experiment on MALME-3M melanoma was above 100 µM in each case.
Turning to `CCOC(=O)c1c(SC(=O)c2cc(OC)c(OC)c(OC)c2)n(-c2ccccc2)c(=S)n(-c2ccccc2)c1=O`, the TGI in the experiment on MDA-MB-435, in the experiment on OVCAR-5 ovarian, in the experiment with U251 CNS, with KM12 colon, with SK-MEL-28 melanoma and with UACC-257 melanoma was above 100 µM each time. Also, the TGI with IGROV1 ovarian, in the experiment on HCT-116 colon, with SF-539 CNS and with MALME-3M melanoma was above 100 µM each time.
On to `Cc1oc2nc1C(=O)NCc1nc(cs1)C(=O)N[C@H](C(C)C)c1nc(cs1)C(=O)N[C@H]2C`, for which the TGI in the experiment with MDA-MB-435, with OVCAR-5 ovarian, in the experiment on U251 CNS, in the experiment on KM12 colon, with SK-MEL-28 melanoma and in the experiment on UACC-257 melanoma was above 100 µM throughout. The TGI in the experiment on IGROV1 ovarian, in the experiment on HCT-116 colon, with SF-539 CNS and with MALME-3M melanoma was above 100 µM each time.
As for `CSc1nc2ccccc2c(=O)n1/N=C1\C(=O)N(CN2CCOCC2)c2ccc(Cl)cc21`, the TGI with MDA-MB-435 was above 100 µM; in the experiment with OVCAR-5 ovarian it was above 100 µM; in the experiment with U251 CNS, above 100 µM; with KM12 colon, above 100 µM; with SK-MEL-28 melanoma it was above 100 µM; in the experiment with UACC-257 melanoma, 51.2 µM. For the same compound, the TGI in the experiment on IGROV1 ovarian was above 100 µM; with HCT-116 colon it was above 100 µM; in the experiment on SF-539 CNS it was 75.6 µM; in the experiment with MALME-3M melanoma it was above 100 µM.
Turning to `N/C(=N\N=C\c1ccc2c(c1)OCO2)NO`, the TGI with MDA-MB-435 is above 100 µM; in the experiment on OVCAR-5 ovarian, above 100 µM; with U251 CNS, above 100 µM; in the experiment on KM12 colon, 63.6 µM; with SK-MEL-28 melanoma it was above 100 µM; in the experiment with UACC-257 melanoma, above 100 µM. For the same compound, the TGI with IGROV1 ovarian was found to be 88.3 µM; in the experiment on HCT-116 colon, 59.8 µM; in the experiment on SF-539 CNS it was 56.5 µM; in the experiment on MALME-3M melanoma it was 86.8 µM.
